By IC50 is commonly meant the concentration needed to halve the response being measured. As a reminder, the melting point is the temperature, or range, at which the solid turns liquid. Broadly, the Ki is a dissociation constant, usually derived from enzyme kinetics or from competition with a known ligand.

Values joined by “and” are separate entries in the source; they are usually repeats but may differ in a detail not shown here. Identical values can stand only once. Like-named read-outs stand apart in the source and are kept apart here.

Data set [1] has as its system whole rat blood aggregation induced by collagen. Description: In vitro whole rat blood aggregation induced by collagen (Multiplate). In kind it is cell-based. The conditions noted are these: collagen 1.6 μg/ml, na = not active. As for the experimental part: (§1) In vitro aggregation assays were performed using freshly drawn whole rat blood with a Multiplate platelet function analyzer (Roche Diagnostic), the five-channel aggregometer based on measurements of electric impedance. Blood was collected from carotid arteries with a hirudin blood tube (Roche Diagnostic). 300 μl of hirudin anticoagulated blood was mixed with 300 μl prewarmed isotonic saline solution containing studied compound or vehicle (deionized water or DMSO 0.1%) and preincubated for 3 min at 37 °C with continuous stirring. Aggregation was induced by adding collagen (Hyphen-Biomed, France) (final concentration 1.6 µg/ml), 5-HT (30 µM) and sub-threshold concentration of collagen (0.8 µg/ml), 5-HT (6 µM) and sub-threshold concentration of ADP (ADP test, Roche Diagnostic), (1.6 µM). The aggregation process was recorded for 6 min. Ketanserin (ketanserin ( +) tartrate salt, Sigma-Aldrich, Germany), sarpogrelate (sarpogrelate hydrochloride, Sigma-Aldrich, Germany), and aspirin (Tocris, UK) were used as reference compounds. The Multiplate software analyzed the area under the curve (AUC) of the clotting process of each measurement and calculated the mean values. Each concentration of studied compounds was tested at least three times. The exact sample size (n value) is presented on Figs. 2–4. Concentration-inhibition curves were constructed and analyzed by non-linear curve fitting using GraphPad Prism 6.0 (GraphPad Software Inc., San Diego, CA, USA).

Data set [2] has as its target T1, human 5-HT2A receptor (Homo sapiens, UniProt P28223).
T1 construct: purchased PerkinElmer; host or cells: CHO-K1 cells, stably transfected
Description: 5-HT2A receptor radioligand binding assay ([3H]-ketanserin, CHO-K1 membranes). The note with it: read-out: Ki [nM] ± SEM. As to the method:
Stock solutions of tested compounds (10 mM) were prepared in DMSO. […] Each compound was tested in eight concentrations from 10^–5 to 10^–12 M (final concentration).
Radioligand binding was performed using membranes from CHO-K1 cells stably transfected with the human 5-HT2A receptor (PerkinElmer). All assays were carried out in duplicates. Data were fitted to a one-site curve-fitting equation with Prism 6 (GraphPad Software) and Ki values were estimated from the Cheng − Prusoff equation. The full description of this assay is in Supplementary material.
Mianserin (10 μM) was used to define nonspecific binding. […] The reaction was terminated by rapid filtration through GF/B filter mate presoaked with 0.5% polyethyleneimine for 30 minutes. Ten rapid washes with 200 µl 50 mM Tris buffer (4°C, pH 7.4) were performed using automated harvester system Harvester-96 MACH III FM (Tomtec). […] Radioactivity was counted in MicroBeta2 scintillation counter (PerkinElmer).

Data set [3] concerns the target T2, 5-HT2A receptors in rat aorta (Rattus norvegicus, UniProt P14842).
T2 construct: Isolated rat aorta was used to determine the antagonistic activity of studied compounds for 5HT2A-receptors; from tissue; host or cells: aortic rings of male Wistar rats, denuded of the endothelium
Kind of data set: Functional bioassay at 5-HT2A receptors in isolated rat aorta (5-HT-induced contraction). In kind it is cell-based. The conditions noted are these: single antagonist concentration, 30 min incubation, read-out: pKB ± SEM a (converted). As to the method: Isolated rat aorta was used to determine the antagonistic activity of studied compounds for 5HT2A-receptors. The male Wistar rats weighting 200–350 g were anesthetized with thiopental sodium (75 mg/kg i.p.) and the aorta was dissected and placed in a Krebs–Henseleit solution (NaCl 118 mM, KCl 4.7 mM, CaCl2 2.25 mM, MgSO4 1.64 mM, KH2PO4 1.18 mM, NaHCO3 24.88 mM, glucose 10 mM, C3H3O3Na 2.2 mM, EDTA 0.05 mM), denuded of the endothelium, cleaned of surrounding fat tissues and cut into 4-mm-long rings. The aortic rings were incubated in 30 ml chambers filled with a Krebs–Henseleit solution at 37 °C and pH 7.4 with constant oxygenation (O2/CO2, 19:1). Two stainless steel stirrups were inserted through the lumen of each aortic segment: one stirrup was attached to the bottom of the chamber and the other to an isometric FDT10-A force–displacement transducer (BIOPAC Systems, Inc., COMMAT Ltd., Turkey). The aortic rings were stretched and maintained at optimal tension of 2 g and allowed to equilibrate for 2 h.
After the equilibration period, the aortic rings were contracted to maximal tension with KCl (60 mM). The depolarizing solution KCl (60 mM) was obtained by equimolar substitution of […]. Then the cumulative concentration–response curves to 5-HT were determined in the absence and presence of antagonist. Tissues were incubated with antagonists for 30 min.
Concentration–response curves were analyzed using GraphPad Prism 6.0 software (GraphPad Software Inc., San Diego, CA, USA). […] Data are the mean ± SEM of three separate experiments. The affinity was estimated with the equation pKB = log(concentration ratio–1)-log(molar antagonist concentration), where the concentration ratio is the ratio of equi-effective agonist concentrations in the absence and in the presence of the antagonist.

Data set [4] concerns the target T1, human 5-HT2A receptor. Kind of data set: Aequorin luminescence-based intracellular calcium assay in CHO cells expressing human 5-HT2A. Type of data set: cell-based. The note with it: cells expressing human 5-HT2A receptors, antagonist mode vs α-methylserotonin 30 nM; read-out: pKB ± SEM b (converted). As for the experimental part: Tested and reference compounds were dissolved in DMSO at a concentration of 10^–2 M. Serial dilutions were prepared in 96-well microplate in assay buffer and eight to ten concentrations were tested.
A cellular aequorin-based functional assay was performed with recombinant Chinese hamster ovary cells expressing mitochondrially targeted aequorin, human G-protein-coupled receptors, and the promiscuous G protein α16 for 5-HT2A. The full description of this assay is in Supplementary materials.
A cellular aequorin-based functional assay was performed with recombinant Chinese hamster ovary cells expressing mitochondrially targeted aequorin, human G-protein-coupled receptors and the promiscuous G protein α16 for 5-HT2A. After thawing, cells were transferred to assay buffer (Dulbecco's Modified Eagle Medium/HAM’s F12 with 0.1% protease free bovine serum albumin) and centrifuged. The cell pellet was resuspended in assay buffer and coelenterazine h was added at final concentrations of 5 μM. The cells suspension was incubated at 16°C, protected from light with constant agitation for 16 h and then diluted with assay buffer to the concentration of 120,000 cells/ml. After 1 h of incubation, 50 μl of the cells suspension was dispensed using automatic injectors built into the radiometric and luminescence plate counter MicroBeta2 LumiJET (PerkinElmer, USA) into white opaque 96-well microplates preloaded with test compounds. Immediate light emission generated following calcium mobilization was recorded for 30 s. In antagonist mode, after 30 min of incubation the reference agonist was added to the above assay mix and light emission was recorded again. Final concentration of the reference agonist was equal to EC80 of α-methylserotonin (30 nM).

The subject of data set [5] is whole rat blood aggregation induced by 5-HT and collagen. Kind of data set: In vitro whole rat blood aggregation induced by 5-HT and sub-threshold collagen. Type of data set: cell-based. The conditions noted are these: 5-HT 30 μM and collagen 0.8 μg/ml, read-out: b (5-HT + collagen) IC50. As for the experimental part: as §1
Data set [6] concerns whole rat blood aggregation induced by 5-HT and ADP. Description: In vitro whole rat blood aggregation induced by 5-HT and sub-threshold ADP. Type of data set: cell-based. The conditions noted are these: for IC50: 5-HT 6 μM and ADP 1.6 μM, na = not active, read-out: c (5-HT + ADP) IC50. As to the method:
as §1

In data set [7] the target is 5-HT2A receptor. The note with it: cited from earlier work.
For data set [8], the system named is whole rat blood aggregation induced by 5-HT and ADP. Further details: method as in PMID 29111111. The conditions noted are these: 5-HT 6 μM and ADP 1.6 μM, already published, read-out: c (5-HT + ADP) IC50; cited from earlier work.
Where [9] appears, read: literature values, no reference given, read-out: 5-HT2A: Ki of conventional antagonists.

T2 sequence (P14842 whole entry): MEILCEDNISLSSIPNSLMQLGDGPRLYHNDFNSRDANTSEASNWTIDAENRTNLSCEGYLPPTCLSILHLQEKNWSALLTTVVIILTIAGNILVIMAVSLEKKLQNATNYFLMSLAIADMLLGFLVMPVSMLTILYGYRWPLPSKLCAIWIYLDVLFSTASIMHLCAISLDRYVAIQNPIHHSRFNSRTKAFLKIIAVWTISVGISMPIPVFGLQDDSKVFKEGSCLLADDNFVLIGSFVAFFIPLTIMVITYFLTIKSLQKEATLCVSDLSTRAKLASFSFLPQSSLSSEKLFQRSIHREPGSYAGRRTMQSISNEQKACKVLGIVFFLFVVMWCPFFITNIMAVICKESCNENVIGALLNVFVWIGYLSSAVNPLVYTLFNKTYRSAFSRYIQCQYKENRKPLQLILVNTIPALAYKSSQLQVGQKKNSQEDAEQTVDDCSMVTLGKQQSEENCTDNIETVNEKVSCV
T1 sequence (P28223 whole entry): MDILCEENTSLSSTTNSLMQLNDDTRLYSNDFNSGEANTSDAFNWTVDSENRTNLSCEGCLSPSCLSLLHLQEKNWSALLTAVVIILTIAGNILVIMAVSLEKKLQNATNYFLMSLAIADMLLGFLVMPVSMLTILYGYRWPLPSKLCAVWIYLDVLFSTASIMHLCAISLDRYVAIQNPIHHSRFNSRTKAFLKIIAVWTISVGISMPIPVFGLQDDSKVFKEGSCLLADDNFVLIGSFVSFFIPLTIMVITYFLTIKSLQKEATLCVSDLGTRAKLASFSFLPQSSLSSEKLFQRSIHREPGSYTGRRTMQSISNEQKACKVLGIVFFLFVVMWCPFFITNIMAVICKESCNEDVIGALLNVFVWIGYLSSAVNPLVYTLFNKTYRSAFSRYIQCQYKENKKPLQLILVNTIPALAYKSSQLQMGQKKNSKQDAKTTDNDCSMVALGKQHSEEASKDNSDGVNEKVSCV

In [1], `CC(=O)Oc1ccccc1C(=O)O` [Aspirin] displayed an IC50 of 14500 ± 1100 nM.
`CC1(c2ccccc2)NC(=O)N(CCN2CCN(C(=O)c3ccc(F)cc3)CC2)C1=O` (stereo not shown) [Compound 1, 3-(2-(4-(4-Fluorobenzoyl)piperazin-1-yl)ethyl)-5-methyl-5-phenylimidazolidine-2,4-dione]: the melting point lay within 117 to 119 °C.
For `CC1(c2ccccc2)NC(=O)N(CCN2CCN(C(c3ccccc3)c3ccccc3)CC2)C1=O` (stereo not shown) [Compound 2, 3-(2-(4-Benzhydrylpiperazin-1-yl)ethyl)-5-methyl-5-phenylimidazolidine-2,4-dione], the Ki in [2] came out at 450 ± 43.9 nM. Besides, the Kb in [3] is 690 nM; in data set [4], 1970 nM. For the same compound, in data set [5], the concentration for half-maximal inhibition (IC50) is 140000 ± 18900 nM. Moreover, the “inhibitory effect on ADP- and 5-HT-induced blood aggregation” value in data set [6] (at a concentration of 200 μM) is listed as “did not exhibit any significant inhibitory effect”.
For the compound `CC1(c2ccccc2)NC(=O)N(CCCN2CCN(c3ccccc3F)CC2)C1=O` (stereo not shown) [Compound 3, 3-(3-(4-(2-Fluorophenyl)piperazin-1-yl)propyl)-5-methyl-5-phenylimidazolidine-2,4-dione], the Ki in [2] was 516 ± 52 nM. For the same compound, the Kb was 216 nM in [3]; ~175 nM and 175 nM in data set [4]. For the same compound, the IC50 in data set [5] came to 17400 ± 10900 nM; in [6], 37900 ± 6500 nM.
With `CC1(c2ccccc2)NC(=O)N(CCCN2CCN(c3cccc(F)c3)CC2)C1=O` (stereo not shown) [Compound 4, 3-(3-(4-(3-Fluorophenyl)piperazin-1-yl)propyl)-5-methyl-5-phenylimidazolidine-2,4-dione], the Ki in data set [2] came out at 340 ± 57 nM. Further, the Kb in [3] is 440 nM; in data set [4], 9230 nM. The IC50 in data set [5] was found to be 153000 ± 26400 nM; in data set [6], 83100 ± 8100 nM.
Take `CC1(c2ccccc2)NC(=O)N(CCCN2CCN(c3ccc(F)cc3)CC2)C1=O` (stereo not shown) [Compound 5, 3-(3-(4-(4-Fluorophenyl)piperazin-1-yl)propyl)-5-methyl-5-phenylimidazolidine-2,4-dione]: the Ki in data set [2] came to 48 ± 4.9 nM. In addition, the Kb in data set [3] was 110 nM; in [4] it was 9290 nM. The IC50 turned out to be 127000 ± 32700 nM in data set [5] and 124000 ± 36200 nM in data set [6].
For `CC1(c2ccccc2)NC(=O)N(CCCN2CCN(C(=O)c3ccc(F)cc3)CC2)C1=O` (stereo not shown) [Compound 6, 3-(3-(4-(4-Fluorobenzoyl)piperazin-1-yl)propyl)-5-methyl-5-phenylimidazolidine-2,4-dione], the melting point lay within 72 to 74 °C.
As for `O=C(c1ccc(F)cc1)N1CCN(CCN2C(=O)NC3(CCC(c4ccccc4)CC3)C2=O)CC1` (stereo not shown) [Compound 7, 3-(2-(4-(4-Fluorobenzoyl)piperazin-1-yl)ethyl)-8-phenyl-1,3-diazaspiro[4.5]decane-2,4-dione], the melting point fell in the range of 224 to 226 °C.
On the same count and under the same terms, under `O=C1NC2(CCC(c3ccccc3)CC2)C(=O)N1CCN1CCN(C(c2ccccc2)c2ccccc2)CC1` (stereo not shown) [Compound 8, 3-(2-(4-Benzhydrylpiperazin-1-yl)ethyl)-8-phenyl-1,3-diazaspiro[4.5]decane-2,4-dione] stands 243 to 245 °C.
Consider `O=C1NC2(CCC(c3ccccc3)CC2)C(=O)N1CCCN1CCN(c2ccccc2F)CC1` (stereo not shown) [Compound 9, 3-(3-(4-(2-Fluorophenyl)piperazin-1-yl)propyl)-8-phenyl-1,3-diazaspiro[4.5]decane-2,4-dione], for which the Ki in data set [2] came out at 220 ± 19.6 nM. Also, the Kb in [3] is 95.9 nM; in data set [4], 1990 nM. Moreover, in data set [5], the IC50 worked out at 139000 ± 16100 nM.
In the case of `O=C1NC2(CCC(c3ccccc3)CC2)C(=O)N1CCCN1CCN(c2cccc(F)c2)CC1` (stereo not shown) [Compound 10, 3-(3-(4-(3-Fluorophenyl)piperazin-1-yl)propyl)-8-phenyl-1,3-diazaspiro[4.5]decane-2,4-dione], the inhibition constant Ki in [2] worked out at 297 ± 19.9 nM. In data set [3], the Kb is 501 nM. Moreover, the IC50 turned out to be 94300 ± 53500 nM in data set [5] and 119000 ± 32100 nM in data set [6].
In the case of `O=C1NC2(CCC(c3ccccc3)CC2)C(=O)N1CCCN1CCN(c2ccc(F)cc2)CC1` (stereo not shown) [Compound 11, 3-(3-(4-(4-Fluorophenyl)piperazin-1-yl)propyl)-8-phenyl-1,3-diazaspiro[4.5]decane-2,4-dione], in [2], the Ki was 21 ± 1.7 nM. The Kb was 37.2 nM in [3] and 175 nM in data set [4]. For the same compound, the IC50 stood at 91300 ± 7100 nM in [5] and 140000 ± 44600 nM in [6].
As for `O=C(c1ccc(F)cc1)N1CCN(CCCN2C(=O)NC3(CCC(c4ccccc4)CC3)C2=O)CC1` (stereo not shown) [Compound 12, 3-(3-(4-(4-Fluorobenzoyl)piperazin-1-yl)propyl)-8-phenyl-1,3-diazaspiro[4.5]decane-2,4-dione], the melting point was 203 to 205 °C. Also, in data set [2], the Ki worked out at 2580 ± 302 nM.
On to `O=C(c1ccc(F)cc1)C1CCN(CCn2c(=O)[nH]c3ccccc3c2=O)CC1` [Ketanserin, reference compound], for which the IC50 in data set [1] is 32100 ± 3000 nM; in [5] it was 1300 nM; in [8] it was 9700 ± 2100 nM. Besides, in data set [7] (setting [9]), the Ki was 2 nM.
As to `CC1(c2ccccc2)NC(=O)N(CCCN2CCN(c3ccccc3)CC2)C1=O` (stereo not shown) [compound B], the Ki in data set [7] (5-HT2A receptors, previous studies, read-out: Ki (5-HT2A) of earlier hydantoin leads) was 69 nM.
With `O=S1(=O)c2cccc3cccc(c23)N1CCCN1CCN(c2ccc(F)cc2)CC1` [fananserin, reference compound], the Ki in [7] (setting [9]) was 0.37 nM.

Values taken from article PMC8460535, “Novel serotonin 5-HT2A receptor antagonists derived from 4-phenylcyclohexane-5-spiro-and 5-methyl-5-phenyl-hydantoin, for use as potential antiplatelet agents” (Pharmacological Reports, 2021).
